Test results published in patent US11760986B2, “Evolution of proteases” (President and Fellows of Harvard College, priority 2014, dated 2023).

Tests used:
wild-type HCV protease = target: T1, wild-type HCV protease (Hepatitis C virus genotype 1a, UniProt P27958, L1039E/L1040E/I1043Q/I1044E/L1047Q/C1073S/C1078L/I1098T/Q1106K/P1112Q/L1179I/C1185S/N1200S, form not given); test: In vitro HCV protease inhibition assay with internally quenched fluorescent substrate (HCV RET Substrate 1, Anaspec); format: biochemical; conditions: 40 nM protease, 7.5 μM substrate, 30° C., IC50±standard deviation
T1 construct: 6xHis-TEVcutsite-HCV protease 2610 . .; fused on or other part: N-terminal Met-6xHis-TEV site, then an NS4A cofactor peptide ([…], about NS4A 21-33 with C22S and V30N); The peptide is fused in front of NS3 residue 4; The helicase domain is absent; the chain ends at NS3 182
Experimental: Purification and in vitro assays of evolved HCV variants. HCV protease variants were sub-cloned by Gibson assembly out of the phage genome and into the previously mentioned EP. EPs were transformed into NEB BL21 DE3 chemically competent cells. Starter cultures were grown to saturation, and 2 mL was used to inoculate 500 mL LB. At OD600=0.6, cultures were transferred to 20° C. and induced with 0.5% arabinose for 6 h. Cells were harvested by centrifugation at 5,000 g for 10 m, and resuspended in lysis/bind buffer (50 mM Tris-HCl pH 8.0, 500 mM NaCl, 10% glycerol, 5 mM imidazole). Cells were lysed by sonication for a total of 2 m, and then centrifuged for 20 m at 18,000 g to clarify the lysate. Supernatant was flowed through 0.2 mL His-pur nickel resin spin columns that were equilibrated with binding buffer (Pierce-Thermo). […] Protein concentrations were determined by UV280 on a Nanodrop machine and calculated using an extinction coefficient of 19,000 cm^−1 M^−1 and a molecular weight of 23 kDa.
In vitro assays were performed using the commercial HCV RET Substrate 1 (Anaspec), an internally quenched probe that fluoresces upon proteolytic cleavage, according to the manufacturer's instructions. […] Assays were performed in triplicate, and initial reaction velocities were calculated and normalized to controls without inhibitor. […]

HCV protease D168E [1] = target: T2, HCV protease D168E (Hepatitis C virus genotype 1a, UniProt P27958, L1039E/L1040E/I1043Q/I1044E/L1047Q/C1073S/C1078L/I1098T/Q1106K/P1112Q/L1179I/C1185S/D1194E/N1200S, form not given); format: biochemical; conditions: HCV protease D168E; 40 nM protease, 7.5 μM substrate, 30° C.; IC50±standard deviation
T2 construct: 6xHis-TEVcutsite-HCV protease 2610 . .; fused on or other part: N-terminal Met-6xHis-TEV site, then an NS4A cofactor peptide ([…], about NS4A 21-33 with C22S and V30N); The peptide is fused in front of NS3 residue 4; The helicase domain is absent; the chain ends at NS3 182
Experimental: (§1) Purification and in vitro assays of evolved HCV variants. HCV protease variants were sub-cloned by Gibson assembly out of the phage genome and into the previously mentioned EP. EPs were transformed into NEB BL21 DE3 chemically competent cells. Starter cultures were grown to saturation, and 2 mL was used to inoculate 500 mL LB. At OD600=0.6, cultures were transferred to 20° C. and induced with 0.5% arabinose for 6 h. Cells were harvested by centrifugation at 5,000 g for 10 m, and resuspended in lysis/bind buffer (50 mM Tris-HCl pH 8.0, 500 mM NaCl, 10% glycerol, 5 mM imidazole). Cells were lysed by sonication for a total of 2 m, and then centrifuged for 20 m at 18,000 g to clarify the lysate. Supernatant was flowed through 0.2 mL His-pur nickel resin spin columns that were equilibrated with binding buffer (Pierce-Thermo). Resin was washed with 4 column volumes of wash buffer (50 mM Tris-HCl pH 8.0, 500 mM NaCl, 10% glycerol, 20 mM imidazole). HCV protease was eluted in 4 column volumes of 50 mM Tris-HCl pH 8.0, 500 mM NaCl, 10% glycerol, 200 mM imidazole. Samples were further purified by size exclusion chromatography on a SuperDex 75 10/300 GL column (GE Healthcare). Size exclusion was performed in 50 mM Tris-HCl pH 8.0, 100 mM NaCl, 10% glycerol, 1 mM DTT. Protein concentrations were determined by UV280 on a Nanodrop machine and calculated using an extinction coefficient of 19,000 cm^−1 M^−1 and a molecular weight of 23 kDa.
(§2) In vitro assays were performed using the commercial HCV RET Substrate 1 (Anaspec), an internally quenched probe that fluoresces upon proteolytic cleavage, according to the manufacturer's instructions. Protease and inhibitors were incubated in assay buffer at room temperature for 5 m prior to addition of substrate. […] The assay buffer contained 50 mM Tris HCl pH 8.0, 100 mM NaCl, 20% glycerol, 5 mM DTT. Assays were performed in triplicate, and initial reaction velocities were calculated and normalized to controls without inhibitor. The data was fit to the Hill Equation using Igor Pro with base and max parameters fixed at one and zero respectively.

HCV protease D168E [2] = format: biochemical, hepatitis C virus; conditions: D168E versus wild-type HCV protease
Experimental: as §1, §2

HCV protease D168Y [3] = target: T3, HCV protease D168Y (Hepatitis C virus genotype 1a, UniProt P27958, C1073S/C1078L/C1185S/D1194Y/I1043Q/I1044E/I1098T/L1039E/L1040E/L1047Q/L1179I/N1200S/P1112Q/Q1106K/T1100M/T1173A); test: biochemical
T3 construct: 6xHis (N); TEV cleavage site (N); NS4a cofactor peptide (fused in the construct, before NS3) (N); made in house; host or cells: E. coli NEB BL21 DE3
Experimental: as §1, §2

HCV protease D168Y [4] = test: biochemical; parameters: species or system hepatitis C virus; conditions: D168Y versus wild-type HCV protease
Experimental: as §1, §2

HCV protease = HCV protease (Hepatitis C virus genotype 1a, UniProt P27958); conditions: literature value (refs 35, 36); cited from earlier work
[5] = tested on: HCV protease on the HCV PA-RNAP; conditions: host cells incubated with inhibitor 90 min, then HCV protease phage, luminescence after 3 h
Experimental: Inhibition of PA-RNAP response in host E. coli cells. […] After 3 h of incubation at 37° C., the luminescence of each culture was measured on a Tecan Infinite Pro plate reader and normalized to OD600. In the absence of inhibitor, phage-encoded protease will activate the PA-RNAP leading to robust production of luciferase. Relative dose responses to inhibitors compared to control cells without drug were measured in triplicate.

Row | Compound | IC50 (wild-type HCV protease) | IC50 (HCV protease D168E [1]) | increase of the IC50 by the mutation (HCV protease D168E [2]) | IC50 (HCV protease D168Y [3]) | increase of the IC50 by the mutation (HCV protease D168Y [4]) | IC50 (HCV protease) | inhibition of cellular gene expression arising from the activity of HCV protease on the HCV PA-RNAP [5]
1 | CC(C)(C)OC(=O)N[C@H]1CCCCC/C=C\[C@@H]2C[C@@]2(C(=O)NS(=O)(=O)C2CC2)NC(=O)[C@@H]2C[C@@H](OC(=O)N3Cc4cccc(F)c4C3)CN2C1=O [danoprevir] | 0.0013 ± 0.0001 µM | 0.0389 ± 0.0024 µM | ~30 fold | 0.0344 ± 0.0028 µM | ~30 fold | ~0.0003 µM | in a dose-dependent manner
2 | C=C[C@@H]1C[C@]1(NC(=O)[C@@H]1C[C@@H](Oc2ncc(OC)c3ccc(Cl)cc23)CN1C(=O)[C@@H](NC(=O)OC(C)(C)C)C(C)(C)C)C(=O)NS(=O)(=O)C1CC1 [asunaprevir] | – | – | ~10 fold | – | 30 fold | – | in a dose-dependent manner
